{
  "source": "paper PMC4947679",
  "about": "“Quantitative In Vitro and In Vivo Evaluation of Intestinal and Blood-Brain Barrier Transport Kinetics of the Plant N-Alkylamide Pellitorine” (BioMed Research International, 2016)",
  "assay": "Blood-to-brain transport, multiple time regression (MTR) analysis in mice",
  "description": "Seven-to-ten-week-old female, Institute for Cancer Research, Caesarean Derived-1 (ICR-CD-1) mice (Harlan Laboratories, Venray, Netherlands) weighing 29–32 g were used for the BBB transport experiments. The experiments were performed according to the Ethical Committee principles of laboratory animal welfare as approved by Ghent University (Faculty of Veterinary Medicine, number EC2014/128).\nAn in vivo multiple time regression (MTR) analysis was performed in order to determine whether pellitorine could enter the brain. A dose solution of 1.8 mg/mL pure pellitorine dissolved in 6.9% EtOH, 2.5% dimethylacetamide, and 0.5% tween 80 (all w/w) diluted in lactated Ringer's solution containing 1% BSA was prepared. After anesthetizing the mice intraperitoneally with a 40% (w/V) urethane solution (3 g/kg), the jugular internalis vein and carotid artery were isolated and 20 μL of the pellitorine dose solution was injected into the jugular vein. After 1, 3, 5, 10, 12.5, and 15 min after injection (with start and end in duplicate), blood was collected from the carotid artery. Immediately thereafter, the mice were decapitated and the brains were isolated. […] The serum concentrations of pellitorine were plotted against the time (expressed in min). The curve was fitted using a first-order kinetic, two-compartment model: C(t) = C 1 × e ^−α×t + C 2 × e ^−β×t, in which C is the concentration of pellitorine in serum at time t, α and β are hybrid constants, dependent on the rate constants k e (elimination rate constant), k 1,2 (rate constant between central and peripheral tissue compartment), k 2,1 (rate constant between peripheral tissue and central compartment), C 1 is the concentration obtained after extrapolation of the distribution phase α to the y-axis, and C 2 is the concentration obtained after extrapolation of the elimination phase β to the y-axis. The ratio of the pellitorine brain and serum concentration (μL/g) was plotted versus the exposure time (θ), which is a derived time variable of the Gjedde-Patlak plot, to determine the BBB influx kinetics of pellitorine.\nThe exposure time is computed as θ = ∫0 ^T((C s(t) · dt)/C s(T)) and is defined as the integral of the concentration of pellitorine in serum from start (t = 0 min) to time T, divided by the concentration of pellitorine in serum at time T. The integral of the concentration of pellitorine in serum from zero to time T is the area under the curve until time T.\nThe brain uptake of pellitorine was fitted using a biphasic model, as elaborated by Wong et al.: (4) CbrainT/CsTK·θ+Vg·1−e^−θ·K1−K/Vg+V0≅K=0Vg·1−e^−θ·K1/Vg+V0 in which C brain(T) is the concentration of pellitorine in the brain at time T (ng/g), C s(T) the concentration of pellitorine in serum at time T (ng/μL), K the net clearance (μL/(g·min)), V g the tissue brain distribution volume (μL/g), K 1 the unidirectional clearance from pellitorine from blood to brain (i.e., the unidirectional brain transfer coefficient, also referred to as influx rate) (μL/(g·min)), and V 0 the vascular brain distribution volume (μL/g).",
  "key": {"[1]": {"details": "female, ICR-CD-1, mouse, serum, iv, 36 μg/mouse"}, "[2]": {"details": "mice, intravenous, two-compartment model"}},
  "data": [
    {"compound": "CCCCC/C=C/C=C/C(=O)NCC(C)C", "note": "[pellitorine, deca-2E,4E-dienoic acid isobutylamide]", "values": [
      {"measurement": "Kp", "setting": "female, ICR-CD-1, mouse, brain (relative to serum), iv, 36 μg/mouse", "result": 0.792},
      {"measurement": "half-life", "setting": "[1]", "result": 4.48, "unit": "min"},
      {"measurement": "k el", "setting": "[1]", "result": 0.0025, "unit": "s⁻¹"},
      {"measurement": "unidirectional influx rate K 1", "setting": "mice, injection into jugular vein, MTR", "result": 153, "unit": "µL/g/min"},
      {"measurement": "tissue brain distribution volume (V g)", "setting": "mice, intravenous, biphasic model", "result": 792, "unit": "µL/g"},
      {"measurement": "C 1 (serum, extrapolation of distribution phase)", "setting": "[2]", "result": 7.02, "unit": "µg/mL"},
      {"measurement": "C 2 (serum, extrapolation of elimination phase)", "setting": "[2]", "result": 0.44, "unit": "µg/mL"},
      {"measurement": "distribution rate constant α", "setting": "mouse serum, intravenous, two-compartment model", "result": 1.56, "unit": "min⁻¹"},
      {"measurement": "toxicity during the experiment", "setting": "mouse, in vivo, iv", "result": "no toxicity was observed"}
    ]}
  ]
}
